O=C(O)[C@@H](O)CCc1ccccc1
solubility (mole fraction)
Settings | in ethyl acetate | in toluene | in water
278.2 K | 0.107 | – | –
283.2 K | 0.117 | – | 0.00071
288.2 K | 0.128 | 0.0013 | 0.00094
293.2 K | 0.14 | 0.00169 | 0.00107
298.2 K | 0.15 | 0.00235 | 0.00137
303.2 K | 0.16 | 0.00298 | 0.00172
308.2 K | 0.174 | 0.00407 | 0.00229
313.2 K | 0.182 | 0.00555 | 0.00311
318.2 K | – | 0.00729 | 0.00406
323.2 K | – | 0.00996 | 0.00701
328.2 K | – | 0.0127 | 0.0142
333.2 K | – | 0.0173 | 0.044
338.2 K | – | 0.0238 | –
343.2 K | – | 0.0341 | –

Reference: BigSolDB 2.1
